The values that follow come from article PMC2680961, “Homologous desensitization of signalling by the alpha (α) isoform of the human thromboxane A2 receptor: A specific role for nitric oxide signalling” (Biochimica et Biophysica Acta, 2007).

SMILES strings stand for the structures.

The target of one test is T1, TP^S145A,Δ328 (Homo sapiens, UniProt P21731, S145A).
T1 construct: expressed in transfected cells
T1 sequence (P21731 1-328 S145A): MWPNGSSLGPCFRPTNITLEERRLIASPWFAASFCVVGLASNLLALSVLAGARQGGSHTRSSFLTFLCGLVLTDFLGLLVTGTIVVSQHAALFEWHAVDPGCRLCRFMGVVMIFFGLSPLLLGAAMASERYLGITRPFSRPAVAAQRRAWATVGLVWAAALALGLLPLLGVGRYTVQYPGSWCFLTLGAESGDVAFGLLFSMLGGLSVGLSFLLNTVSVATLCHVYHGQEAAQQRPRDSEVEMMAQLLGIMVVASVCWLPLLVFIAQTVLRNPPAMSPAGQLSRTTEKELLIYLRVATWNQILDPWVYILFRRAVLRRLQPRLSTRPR
The test is described as follows: [3H]SQ29,548 radioligand binding, Scatchard analysis, HEK.TP^S145A,Δ328. The method, then:
Cells were harvested by centrifugation at 500×g at 4 °C for 5 min and washed three times with ice-cold Ca^2+/Mg^2+-free phosphate-buffered saline (PBS). TP radioligand binding assays were carried out at 30 °C for 30 min in 100 μl reactions in the presence of 0–40 nM [^3H] […] Protein determinations were carried out using the Bradford assay.
Radioligand binding and Scatchard analysis data were analysed using GraphPad Prisim V4.0 programme (GraphPad Software Inc., San Diego CA, USA). Statistical analyses were carried out using the unpaired Student's t test using the Statworks Analysis Package. p-values ≤ 0.01 indicated statistically significant differences.

Another test deals with T2, TPα^Δ336 (Homo sapiens, UniProt P21731).
T2 construct: expressed in transfected cells
T2 sequence (P21731 1-335): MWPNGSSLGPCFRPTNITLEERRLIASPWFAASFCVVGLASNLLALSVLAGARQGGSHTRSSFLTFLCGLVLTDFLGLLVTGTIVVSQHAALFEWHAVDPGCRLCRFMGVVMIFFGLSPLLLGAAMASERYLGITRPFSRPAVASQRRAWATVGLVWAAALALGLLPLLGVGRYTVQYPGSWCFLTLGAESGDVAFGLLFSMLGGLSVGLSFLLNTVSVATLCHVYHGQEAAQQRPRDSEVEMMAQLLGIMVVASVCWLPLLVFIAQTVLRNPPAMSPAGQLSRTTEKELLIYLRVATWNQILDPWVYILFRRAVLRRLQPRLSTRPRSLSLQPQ
The test is described as follows: Intracellular calcium mobilization, HEK.TPα^Δ336 cells. Conditions: for Δ[Ca2+]i, U46619-induced: HEK.TPα^Δ336. Format: cell-based. The protocol:
Measurement of intracellular calcium mobilization ([Ca^2+]i) in FURA2/AM preloaded HEK 293 cell lines (2 × 10^6 cells/dish), each transiently co-transfected with pADVA (10 μg), and pCMV:Gαq (25 μg), was carried out as previously described. To investigate the effect of GRK2/βARK1 on TP-mediated [Ca^2+]i mobilization, HEK.TPα or HEK.TPβ cells (2 × 10^6 cells/dish) were co-transfected with pADVA (10 μg), pCMV:Gαq (25 μg) along with pRK5:βARK1^495–689 (25 μg), encoding a dominant negative form of GRK2/βARK1[39]. Approximately 48 h post-transfection, cells were harvested by scraping, washed twice in ice-cold PBS and resuspended in HBSSHB (modified Ca^2+/Mg^2+-free Hank's buffered salt solution, containing […], pH 7.67, 0.1% bovine serum albumin (BSA)) buffer at 10^7 cells/ml and incubated in the dark with 5 μM FURA2/AM for 45 min at 37 °C. […] For each measurement of [Ca^2+]i mobilization, aliquots of cells were diluted to 0.825 × 10^6 cells/ml in HBSSHB, 1 mM CaCl2 and FURA2 fluorescence was recorded (2 ml aliquots of cells) at 37^ °C with gentle stirring with a Perkin Elmer-Cetus LS50-B spectrofluorometer at excitation wavelengths of 340 nm and 380 nm and emission wavelength of 510 nm, respectively.
Cells were stimulated with the TP agonist U46619 (1 μM) and changes in [Ca^2+]i mobilization were monitored as a function of time. To assess agonist-mediated homologous desensitization, cells (0.825 × 10^6 cells/ml; 2 ml per assay) were stimulated with 1 μM U46619 (Primary stimulation) or, as a control, with the vehicle for 4 min; thereafter, cells were collected by centrifugation (900×g, 5 min); were washed twice in 2 ml HBSSHB, 1 mM CaCl2; and finally resuspended in 2 ml HBSSHB,1 mM CaCl2 and were left to recover over various time intervals (ranging from 0 to 60 min); thereafter, cells re-stimulated with 1 μM U46619 (Secondary stimulation) and changes in [Ca^2+]i mobilization were monitored as a function of time. […]
Background: A change in cytosolic calcium serves as a functional read-out for many receptors and channels.

`O=C(O)CCC/C=C\C[C@@H]1[C@H](CNNC(=O)Nc2ccccc2)[C@H]2CC[C@@H]1O2` [SQ29,548]: the “Bmax (pmol/mg protein ± S.E.M.)” value at TP^S145A,Δ328 was 3.83 ± 0.03 pmol/mg protein.
Regarding `CCCCC[C@H](O)/C=C/[C@@H]1[C@@H](C/C=C\CCCC(=O)O)[C@H]2CO[C@@H]1C2` [U46619], the “Δ[Ca2+]i, U46619-induced” value amounted to 240 ± 14 nM on TPα^Δ336 (primary 1 μM U46619 4 min) and 50 ± 3.4 nM on TPα^Δ336 (secondary 1 μM U46619 at 15 min). In addition, on TPα^Δ336 (TPα^Δ336), the “secondary U46619 [Ca2+]i response relative to primary response” value amounted to 20%.
